We go through twelve molecules from ChEMBL document CHEMBL1201862, “PubChem BioAssay data set” (2004).

Some test systems named below: SK-OV-3; MOLT-4; COLO 205; UO-31; CCRF-CEM; HOP-92; A549; UACC-62; HOP-62; MDA-MB-435; TK-10; SN12C; RPMI-8226; NCI-H226; 786-0; MCF7; OVCAR-3; SF-539; HCC 2998.
What all share (experiment): NCI tumour cell line growth inhibition, 48 h

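All cell lines were grown in 96-well plates and treated with compound for 48 hours. The concentration for 50% growth inhibition is given as GI50.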 The source made the active and inactive calls. No stated cut-off is given here; in the data, active = GI50 up to about 1.1 µM and inactive = higher.

Consider `CCSC1=N/C(=C\c2ccco2)C(=O)N1`, for which the GI50 was > 100 µM (inactive) with SK-OV-3; > 100 µM (inactive) in the assay on MOLT-4; > 100 µM (inactive) in the assay with COLO 205; > 100 µM (inactive) in the assay with UO-31; > 100 µM (inactive) in the assay with CCRF-CEM; 93.3 µM (inactive) in the assay with HOP-92. For the same molecule, the GI50 in the assay on A549, with UACC-62, with HOP-62, in the assay with MDA-MB-435, in the assay with TK-10 and with SN12C was > 100 µM (inactive) throughout. The GI50 was > 100 µM (inactive) in the assay on RPMI-8226; > 100 µM (inactive) in the assay on NCI-H226; > 100 µM (inactive) in the assay with 786-0; 6.59 µM (inactive) in the assay with MCF7; > 100 µM (inactive) in the assay with OVCAR-3.

For `COC(CNC(=O)C(C)NC(=O)CCc1ccccc1)OC` (stereo unspecified), the GI50 in the assay with SK-OV-3, with MOLT-4, in the assay with COLO 205, in the assay with SF-539, with UO-31 and in the assay on CCRF-CEM was > 100 µM (inactive) throughout. Also, the GI50 with HOP-92, in the assay with A549, in the assay on UACC-62, in the assay with MDA-MB-435, in the assay with TK-10 and with SN12C was > 100 µM (inactive) in each case. Further, the GI50 with RPMI-8226, with NCI-H226, in the assay with 786-0 and with MCF7 was > 100 µM (inactive) throughout.

With `COc1nc(N)nc2c1n(C)c[n+]2C`, the GI50 in the assay with SK-OV-3, with MOLT-4, in the assay on COLO 205, in the assay on SF-539, in the assay on UO-31 and with CCRF-CEM was > 100 µM (inactive) in each case. Further, the GI50 with HOP-92, in the assay on A549, with UACC-62, in the assay with HOP-62, in the assay with MDA-MB-435 and in the assay with TK-10 was > 100 µM (inactive) throughout. Moreover, the GI50 with SN12C, in the assay with RPMI-8226, with NCI-H226, in the assay on 786-0 and in the assay on OVCAR-3 was > 100 µM (inactive) each time.

As for `CCCC/C=C/C=C/C=C/CCCCCCCC(=O)OCC(COC(=O)CCCCCCC/C=C/C1C=CC(CCCC)C(C(=O)O)C1C(=O)O)OC(=O)CCCCCCC/C=C/C=C/C=C/CCCC.OCCNCO` (stereo unspecified), the GI50 in the assay on SK-OV-3 is 23.7 µM (inactive); with MOLT-4 it was 23.7 µM (inactive); in the assay with COLO 205, 15.8 µM (inactive); in the assay with SF-539, 19 µM (inactive); with HCC 2998, 23.4 µM (inactive); with UO-31, 20 µM (inactive). Further, the GI50 is 11.9 µM (inactive) in the assay on CCRF-CEM; 23.8 µM (inactive) with HOP-92; 18.8 µM (inactive) in the assay with A549; 14.8 µM (inactive) in the assay on UACC-62; 18.6 µM (inactive) in the assay on HOP-62; 19.1 µM (inactive) with TK-10. The GI50 with SN12C was 20 µM (inactive); in the assay with RPMI-8226, 3.78 µM (inactive); in the assay with NCI-H226, 17.5 µM (inactive); in the assay on 786-0, 13.7 µM (inactive); in the assay on OVCAR-3, 17.9 µM (inactive).

Turning to `CC(C)C(Nc1ncnc2nc[nH]c12)C(=O)O` (stereo unspecified), the GI50 in the assay on SK-OV-3, in the assay with COLO 205, in the assay on UO-31, in the assay on CCRF-CEM, in the assay with HOP-92 and in the assay with A549 was > 100 µM (inactive) throughout. The GI50 with UACC-62, in the assay with HOP-62, in the assay with MDA-MB-435, with TK-10, with SN12C and in the assay on RPMI-8226 was > 100 µM (inactive) throughout. Further, the GI50 in the assay on NCI-H226, with 786-0, in the assay with MCF7 and with OVCAR-3 was > 100 µM (inactive) in each case.

As for `O=c1c(/C=C/c2c(O)ccc3ccccc23)nnc2sc(-c3cccc([N+](=O)[O-])c3)nn12`, the GI50 with SK-OV-3 is 30 µM (inactive); in the assay on MOLT-4 it was 3.94 µM (inactive); in the assay with COLO 205, 26.5 µM (inactive); with UO-31, 9.93 µM (inactive); in the assay on HOP-92, 24.2 µM (inactive); with UACC-62, 11.4 µM (inactive). The GI50 is 18.2 µM (inactive) in the assay with HOP-62; 17.1 µM (inactive) in the assay with MDA-MB-435; 9.29 µM (inactive) with TK-10; 9.33 µM (inactive) with SN12C; 14.6 µM (inactive) with RPMI-8226; 7.13 µM (inactive) with 786-0. Also, the GI50 with OVCAR-3 is 2.73 µM (inactive).

For `O=C(NNC(=O)c1ccccc1O)c1ccco1`, the GI50 was > 100 µM (inactive) in the assay on SK-OV-3; > 100 µM (inactive) in the assay on MOLT-4; 83 µM (inactive) in the assay on COLO 205; > 100 µM (inactive) in the assay with SF-539; > 100 µM (inactive) in the assay on UO-31; 31.3 µM (inactive) with CCRF-CEM. For the same molecule, the GI50 with A549, in the assay on UACC-62, in the assay with HOP-62, in the assay on MDA-MB-435, with TK-10 and in the assay with SN12C was > 100 µM (inactive) each time. In addition, the GI50 with RPMI-8226 was 84.5 µM (inactive); with NCI-H226, > 100 µM (inactive); in the assay with 786-0, > 100 µM (inactive); with MCF7, > 100 µM (inactive); in the assay with OVCAR-3, 57.4 µM (inactive).

Take `CC(=O)NC(CSC1=C2NC(=O)\C=C/C=C\C=C/C(C)C(O)CC(=O)/C(C)=C\CC(O)/C=C\C(C)C(O)C(C)C=C(C)C(=O)c3c(O)c(C)cc(c3C1=O)C2=O)C(=O)O` (stereo unspecified): the GI50 in the assay with SK-OV-3 was > 100 µM (inactive); with MOLT-4 it was 28.6 µM (inactive); in the assay on COLO 205 it was 21.7 µM (inactive); in the assay on SF-539, > 100 µM (inactive); with UO-31, > 100 µM (inactive); in the assay with CCRF-CEM it was 22.3 µM (inactive). The GI50 with HOP-92 was > 100 µM (inactive); with A549, > 100 µM (inactive); with UACC-62 it was 51.5 µM (inactive); in the assay with HOP-62 it was 74 µM (inactive); in the assay with MDA-MB-435, > 100 µM (inactive); with TK-10 it was > 100 µM (inactive). Besides, the GI50 in the assay on SN12C is 79.1 µM (inactive); in the assay on NCI-H226, > 100 µM (inactive); in the assay on 786-0 it was 89.7 µM (inactive); in the assay with MCF7, 53.3 µM (inactive); in the assay on OVCAR-3, 96.6 µM (inactive).

As to `COCN1C(=O)[C@@H]2CCCN2C(=O)c2cc(N)ccc21`, the GI50 is > 100 µM (inactive) in the assay with SK-OV-3; < 0.01 µM (active) with COLO 205; > 100 µM (inactive) in the assay on SF-539; > 100 µM (inactive) with UO-31; > 100 µM (inactive) with A549; > 100 µM (inactive) in the assay on UACC-62. Besides, the GI50 in the assay on HOP-62, with MDA-MB-435, in the assay with TK-10, with SN12C, in the assay with 786-0 and in the assay on MCF7 was > 100 µM (inactive) in each case.

As for `CCOC(=O)C(NC(=O)c1cccc(Cl)c1)(N1CCN(c2cc3c(cc2F)c(=O)c(C(=O)O)cn3C2CC2)CC1)C(F)(F)F` (stereo unspecified), the GI50 in the assay on SK-OV-3 was 23.4 µM (inactive); in the assay with MOLT-4 it was 3.71 µM (inactive); with COLO 205 it was 16.6 µM (inactive); in the assay on SF-539, 16.7 µM (inactive); with HCC 2998, 19.4 µM (inactive); in the assay with UO-31 it was 20.1 µM (inactive). In addition, the GI50 in the assay on CCRF-CEM is 2.67 µM (inactive); in the assay on HOP-92, 16.3 µM (inactive); in the assay on A549 it was 15.2 µM (inactive); with UACC-62 it was 15.3 µM (inactive); in the assay on HOP-62 it was 22.2 µM (inactive); in the assay with MDA-MB-435, 14.2 µM (inactive). For the same molecule, the GI50 is 26.9 µM (inactive) in the assay on SN12C; 3.94 µM (inactive) with RPMI-8226; 19.5 µM (inactive) with NCI-H226; 14.6 µM (inactive) in the assay on 786-0; 10.7 µM (inactive) in the assay on OVCAR-3.

As for `O=C1CC(c2cccc([N+](=O)[O-])c2)C2(C(=O)NC(=O)NC2=O)C(c2cccc([N+](=O)[O-])c2)C1` (stereo unspecified), the GI50 in the assay on SK-OV-3 is > 100 µM (inactive); with MOLT-4, > 100 µM (inactive); with COLO 205, > 100 µM (inactive); in the assay with SF-539, > 100 µM (inactive); in the assay with UO-31, 88.3 µM (inactive); in the assay on CCRF-CEM, 32.9 µM (inactive). The GI50 with HOP-92 is 36.5 µM (inactive); with A549 it was > 100 µM (inactive); with UACC-62, 98.4 µM (inactive); with HOP-62, > 100 µM (inactive); in the assay on MDA-MB-435, > 100 µM (inactive); with SN12C, > 100 µM (inactive). For the same molecule, the GI50 in the assay with RPMI-8226 was 31.5 µM (inactive); in the assay with NCI-H226, 58.2 µM (inactive); in the assay on 786-0 it was > 100 µM (inactive); with MCF7, 17.3 µM (inactive); in the assay with OVCAR-3, 13.9 µM (inactive).

Regarding `COc1ccc(/C=C2\SC(c3ccc(OC)cc3)N(NC(=O)Cc3ccccc3)C2=O)cc1` (stereo unspecified), the GI50 is > 100 µM (inactive) in the assay on SK-OV-3; 79.3 µM (inactive) in the assay with MOLT-4; > 100 µM (inactive) in the assay on COLO 205; > 100 µM (inactive) with SF-539; > 100 µM (inactive) with UO-31; > 100 µM (inactive) with CCRF-CEM. Moreover, the GI50 in the assay on HOP-92, with A549, in the assay on UACC-62, with HOP-62, with TK-10 and with SN12C was > 100 µM (inactive) each time. Besides, the GI50 in the assay with RPMI-8226 is 76.4 µM (inactive); with NCI-H226, > 100 µM (inactive); with 786-0 it was > 100 µM (inactive).
